Where two headings read alike, the source gives them in different places.
How the values were obtained:
[1] = target: T1, serotonin transporter (SERT) (Rattus norvegicus, UniProt P31652); experiment: Serotonin reuptake ([^3H]serotonin uptake) inhibition in rat brain synaptosomes; assay type: biochemical
T1 construct: Freshly removed whole brain minus cerebellum and caudate was homogenized; from tissue; host or cells: rat whole brain minus cerebellum and caudate, synaptosomes

[2] = target: T2, dopamine transporter (DAT) (Rattus norvegicus, UniProt P23977); experiment: Dopamine reuptake ([^3H]dopamine uptake) inhibition in rat brain synaptosomes
T2 sequence (P23977 whole entry): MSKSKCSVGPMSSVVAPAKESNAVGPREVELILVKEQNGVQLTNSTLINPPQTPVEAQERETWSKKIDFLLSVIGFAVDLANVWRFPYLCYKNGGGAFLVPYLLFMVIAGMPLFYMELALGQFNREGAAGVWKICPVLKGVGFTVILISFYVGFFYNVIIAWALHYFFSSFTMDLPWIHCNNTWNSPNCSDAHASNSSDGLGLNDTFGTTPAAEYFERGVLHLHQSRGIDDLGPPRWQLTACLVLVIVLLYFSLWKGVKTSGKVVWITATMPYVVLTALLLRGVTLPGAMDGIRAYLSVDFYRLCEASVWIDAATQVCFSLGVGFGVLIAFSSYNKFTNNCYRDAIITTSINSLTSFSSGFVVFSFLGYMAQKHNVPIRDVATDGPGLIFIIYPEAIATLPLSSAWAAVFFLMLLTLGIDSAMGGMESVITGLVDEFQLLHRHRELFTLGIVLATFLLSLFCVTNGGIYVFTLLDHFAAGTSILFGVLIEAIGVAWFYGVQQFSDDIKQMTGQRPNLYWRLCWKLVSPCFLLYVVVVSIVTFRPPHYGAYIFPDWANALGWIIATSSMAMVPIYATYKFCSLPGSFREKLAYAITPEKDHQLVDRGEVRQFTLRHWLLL

[3] = target: norepinephrine transporter (NET) (Rattus norvegicus, UniProt Q9WTR4); experiment: Norepinephrine reuptake ([^3H]norepinephrine uptake) inhibition in rat brain synaptosomes
[4] = target: T2, dopamine transporter (DAT); experiment: Time course of [^3H]DA uptake/accumulation; assay type: biochemical; design: Freshly removed caudate was homogenized in 10% ice-cold sucrose; from tissue; host or cells: rat caudate synaptosomes
DAT = target: T3, DAT (Rattus norvegicus, UniProt P23977); experiment: Dopamine transporter binding, inhibition of [^3H]WIN35428 binding in rat caudate membranes; settings: inhibition of [3H]WIN35428 binding; mean ± S.D., n = 3
T3 construct: from tissue; host or cells: rat caudate membranes
T3 sequence (P23977 whole entry): as above
Outline: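 Rat caudate membranes in 50 mM sodium phosphate pH 7.4 with protease inhibitors, EDTA/EGTA and BSA were incubated with 1 nM [^3H]WIN35428 and test drug for 2 hours at 25° C. Filtration-retained tritium measured; three pooled experiments fit to dose-response to give Emax and EC50.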

[5] = target: T2, dopamine transporter (DAT); experiment: d-Amphetamine-induced DAT-mediated [^3H]DA release; assay type: biochemical; design: Freshly removed caudate was homogenized in 10% ice-cold sucrose; from tissue; host or cells: rat caudate synaptosomes; settings: Apparent Kc = [Blocker]/((EC50-2/EC50-1) − 1), negative when shifted EC50 is less than control
[6] = target: T2, dopamine transporter (DAT); experiment: Dopamine transporter-mediated [^3H]MPP^+ release, shift of D-amphetamine-induced release, rat caudate synaptosomes; assay type: biochemical; design: Freshly removed caudate was homogenized in 10% ice-cold sucrose; from tissue; host or cells: rat caudate synaptosomes

T1 sequence (P31652 whole entry): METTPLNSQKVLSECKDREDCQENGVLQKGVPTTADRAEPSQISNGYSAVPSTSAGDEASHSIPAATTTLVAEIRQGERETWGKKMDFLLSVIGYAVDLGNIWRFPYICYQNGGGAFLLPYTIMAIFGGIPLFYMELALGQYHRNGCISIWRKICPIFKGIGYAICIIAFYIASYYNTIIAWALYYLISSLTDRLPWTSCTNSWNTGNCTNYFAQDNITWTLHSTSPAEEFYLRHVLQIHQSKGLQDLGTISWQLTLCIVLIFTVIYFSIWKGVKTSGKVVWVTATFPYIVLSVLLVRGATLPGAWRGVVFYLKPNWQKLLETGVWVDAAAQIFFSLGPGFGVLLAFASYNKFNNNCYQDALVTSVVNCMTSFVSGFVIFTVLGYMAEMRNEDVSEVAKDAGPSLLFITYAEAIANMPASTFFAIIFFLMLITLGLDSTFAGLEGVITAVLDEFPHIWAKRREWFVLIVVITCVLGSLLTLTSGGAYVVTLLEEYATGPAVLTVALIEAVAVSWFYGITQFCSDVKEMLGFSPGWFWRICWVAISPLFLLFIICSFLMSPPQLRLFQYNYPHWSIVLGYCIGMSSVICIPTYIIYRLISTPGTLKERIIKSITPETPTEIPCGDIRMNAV

c1ccc(C(CNc2nc(-c3ccc4nccn4c3)nc3ccccc23)c2ccccc2)cc1 [compound 55, N-(2,2-Diphenylethyl)-2-(Imidazo[1,2-a]Pyridin-6-yl)Quinazolin-4-Amine]
Emax ([1]; mean ± S.D., n = 3, read-out: SERT Uptake Emax): 52 ± 2% | IC50 ([1]; mean ± S.D., n = 3, read-out: SERT Uptake IC50): 23 ± 5 nM | efficacy of SERT uptake inhibition, in words ([1]; partial versus full inhibition): partial inhibitor | IC50 ([2]; IC50 for DAT Uptake Inhibition, rounded value as listed in Table 10): 2 nM | IC50 ([2]; IC50 for inhibition of DAT uptake, [^3H]DA uptake, text of b784): 2.3 ± 0.4 nM | efficacy of [^3H]DA (DAT) uptake inhibition, in words ([2]; partial versus full inhibition): partial inhibitor | Emax ([2]; read-out: DAT Uptake Emax): 68 ± 2% | Emax ([2]; read-out: Emax for DAT Uptake Inhibition): 68% | Emax for DAT Uptake Inhibition ([2]; value as listed in Table 10): 68% | NET Uptake Emax ([3]; mean ± S.D., n = 3): 72 ± 4% | efficacy of NET uptake inhibition, in words ([3]; partial versus full inhibition): partial inhibitor | NE Uptake Emax (% I ± SD) ([3]; rat brain synaptosomes, 10 nM [^3H]norepinephrine, maximal inhibition from dose-response fit): 72 ± 4 % I | IC50 ([3]; read-out: NE Uptake EC50 (nM ± SD), rat brain synaptosomes, 10 nM [^3H]norepinephrine, 10 min, 37° C.): 52 ± 15 nM | IC50 ([3]; read-out: NET Uptake IC50, mean ± S.D., n = 3): 52 ± 15 nM | Emax at 0.001 µM ([4]; [^3H]DA accumulation, 1 nM compound 55, read-out: Inhibition of the Emax value (%)): 11% | Emax at 0.004 µM ([4]; [^3H]DA accumulation, 4 nM compound 55, read-out: Inhibition of the Emax value (%)): 29% | Emax at 0.008 µM ([4]; [^3H]DA accumulation, 8 nM compound 55, read-out: Inhibition of the Emax value (%)): 42% | Emax at 0.025 µM ([4]; [^3H]DA accumulation, 25 nM compound 55, read-out: Inhibition of the Emax value (%)): 57% | Emax ([4]; dose-dependent decrease of maximum [^3H]DA accumulation, read-out: Emax of decrease of the Emax of [^3H]DA accumulation): 69 ± 1% | Emax ([4]; maximum level of [^3H]DA accumulation, 1 nM compound 55): 89 ± 4 | Emax ([4]; maximum level of [^3H]DA accumulation, 4 nM compound 55): 71 ± 2 | Emax ([4]; maximum level of [^3H]DA accumulation, 8 nM compound 55): 58 ± 2 | Emax ([4]; maximum level of [^3H]DA accumulation, 25 nM compound 55): 43 ± 3 | effect on the Emax of [^3H]DA accumulation, in words ([4]; time course of [^3H]DA uptake): decreased the Emax in a dose-dependent manner | DAT Binding εmax (DAT): Inactive | Apparent Kc [5]: -239 nM | D-Amphetamine Emax (% ± SD) ([6]; Emax of D-amphetamine for [^3H]MPP^+ release in presence of 50 nM test compound): 103 ± 3% | Apparent Kc ([6]; [3H]MPP+ release, Apparent Kc = [Blocker]/((EC50-2/EC50-1) − 1), negative when shifted EC50 is less than control): -368 nM | effect on the d-amphetamine Emax value, in words ([6]; d-amphetamine-induced DAT-mediated [^3H]MPP^+ release, blocking concentration ˜25 times IC50 for DAT uptake inhibition): decreased
